Consider 4 sequences from paper PMC6409716, “Centipede KCNQ Inhibitor SsTx Also Targets KV1.3” (Toxins, 2019).

Where two headings read alike, the source gives them in different places. Bridges are numbered along the chain shown (N, C = ends). Where no end group is shown, it is not given here.

For data set [1] the following is noted: ref [8]; cited from earlier work. From the text:
With over 3000 species, centipedes, arthropods of the class Chilopoda are widely distributed in both tropical and subtropical regions. Their first pair of legs have been modified into strong mandibles and venomous fangs called forcipules that play a critical role in defense and predation. Centipede stings occur frequently in areas, such as Hawaii, Brazil, Australia, Taiwan, and Japan, evoking an issue of social health care. Centipede toxins are composite mixtures, which are responsible for both local and systemic reactions. Recently, we have identified and characterized several pep ...

The next data set concerns the target T1, KV1.3 (Homo sapiens, UniProt P22001).
T1 construct: expressed in transfected cells; host or cells: HEK293T and CHO cells
The data set is described as follows: Whole-cell patch-clamp, KV1.3. The note with it: whole-cell recording, HEK293T and CHO cells transfected, 1000-ms depolarizing pulse of 10 mV from −80 mV, pH 7.3, room temperature, Hill fit. Type of data set: cell-based. The protocol:
(§1) HEK293T and CHO cells were cultured as described in our previous work. The plasmid DNA (5μL, 1 μg/μL) of KV1.3 and KV7.4 channel was mixed with lipofectamine at a ratio of 1:1 in 200 μL Opti-MEM for 15–20 min, and the mixture was transferred to the cells plated in 20 mm cell culture dish for 12 h. After 24 h transfections, electrophysiological experiments were carried out at room temperature.
(§2) The cells expressing KV1.3 and KV7.4 were digested and plated on glass coverslips before current recording. The HEKA EPC10 amplifier (HEKA Elektronik, Ludwigshafen, Germany) was used to record currents in whole cells under the control of PATCHMASTER software (HEKA Elektronik, Ludwigshafen, Germany). A thin-wall borosilicate glass (A-M Systems) was used to pull patch pipettes and then the pipettes were fire-polished to 3–4 megohm. For whole-cell recordings, the capacity current was minimized by amplifier circuitry, and the series resistance was compensated by 30% to 65%. For KV1.3 and KV7.4 channel, intracellular solution contained 140 mM KCl, 10 mM EGTA, 2 mM MgCl2, 1 mM CaCl2, 10 mM HEPES (pH 7.3, adjusted with KOH), and extracellular solution contained 150 mM NaCl, 0.5 mM CaCl2, 5 mM KCl, 1.2 mM MgCl2, 10 mM HEPES (pH 7.3, adjusted with NaOH), and the current traces were tested by a 1000-ms depolarizing pulse of 10 mV from a holding voltage of −80 mV. The Hill logistic equation shown below was used to fit the Dose–response curves:y = 1 − (1 − fmax)/[1 + ([Tx]/IC50) n](1) where n is an empirical Hill coefficient, and fmax is the fraction of current resistant to inhibition at high toxin (Tx) concentration.

In another data set the target is T2, KV7.4 (Homo sapiens, UniProt P56696).
T2 construct: expressed in transfected cells; host or cells: HEK293T and CHO cells
Kind of data set: Whole-cell patch-clamp, KV7.4. Type of data set: cell-based. As to conditions: whole-cell recording, HEK293T and CHO cells transfected; 1000-ms depolarizing pulse of 10 mV from −80 mV; pH 7.3; room temperature; Hill fit; n = 5 cells. The protocol: as §1
as §2, with “The Hill logistic equation shown below was used to fit the Dose–response curves:y = 1 − (1 − fmax)/[1 + ([Tx]/IC50) n](1) where n is an empirical Hill coefficient, and fmax is the fraction of current resistant to inhibition at high toxin (Tx) concentration.” left out

[2] abbreviates: n = 5 cells, read-out: IC50 on KV1.3 (mutants).

T1 sequence (P22001 whole entry): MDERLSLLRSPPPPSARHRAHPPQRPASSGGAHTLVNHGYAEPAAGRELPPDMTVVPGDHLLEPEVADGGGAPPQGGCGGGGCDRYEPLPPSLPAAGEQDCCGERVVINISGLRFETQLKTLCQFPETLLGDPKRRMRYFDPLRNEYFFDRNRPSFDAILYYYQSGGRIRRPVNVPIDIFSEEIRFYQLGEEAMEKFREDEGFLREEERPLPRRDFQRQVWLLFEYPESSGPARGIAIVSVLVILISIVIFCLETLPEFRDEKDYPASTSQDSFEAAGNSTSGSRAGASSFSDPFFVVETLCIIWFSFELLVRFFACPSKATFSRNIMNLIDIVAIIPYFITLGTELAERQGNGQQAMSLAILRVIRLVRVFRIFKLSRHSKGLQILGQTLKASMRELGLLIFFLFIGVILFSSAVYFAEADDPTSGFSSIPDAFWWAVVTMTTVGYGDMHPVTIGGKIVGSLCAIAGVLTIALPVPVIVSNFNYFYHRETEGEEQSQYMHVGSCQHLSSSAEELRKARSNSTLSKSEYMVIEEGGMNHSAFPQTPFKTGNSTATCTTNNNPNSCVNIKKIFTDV
T2 sequence (P56696 whole entry): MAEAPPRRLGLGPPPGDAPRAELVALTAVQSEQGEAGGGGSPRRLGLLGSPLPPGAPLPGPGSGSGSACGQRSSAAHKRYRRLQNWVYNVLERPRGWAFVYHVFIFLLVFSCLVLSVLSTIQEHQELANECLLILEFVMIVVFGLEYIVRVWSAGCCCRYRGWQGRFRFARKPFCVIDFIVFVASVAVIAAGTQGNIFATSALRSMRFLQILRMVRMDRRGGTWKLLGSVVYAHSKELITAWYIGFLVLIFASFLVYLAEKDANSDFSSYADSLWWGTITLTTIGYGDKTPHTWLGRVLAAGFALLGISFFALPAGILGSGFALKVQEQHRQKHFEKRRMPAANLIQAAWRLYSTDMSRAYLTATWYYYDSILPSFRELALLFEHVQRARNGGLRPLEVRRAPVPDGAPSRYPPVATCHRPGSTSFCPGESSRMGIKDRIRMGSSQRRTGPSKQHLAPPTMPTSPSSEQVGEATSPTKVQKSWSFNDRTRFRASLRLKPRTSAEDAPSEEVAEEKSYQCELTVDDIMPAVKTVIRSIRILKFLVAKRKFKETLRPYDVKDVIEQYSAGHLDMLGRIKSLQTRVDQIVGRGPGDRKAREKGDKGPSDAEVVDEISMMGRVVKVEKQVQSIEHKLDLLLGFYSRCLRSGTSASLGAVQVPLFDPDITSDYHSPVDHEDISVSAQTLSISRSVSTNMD

Take “EVIKKDTPYKKRKFPYKSECLKACATSFTGGDESRIQEGKPGFFKCTCYFTTG (disulfide 20-46, 24-48) [SsTx, Ssm Spooky Toxin]”: the lethal toxicity result in data set [1] is “potent lethal toxicity by causing severe vessels and respiratory disorders or seizures”. The IC50 on KV1.3 (n = 10 cells, read-out: IC50 on KV1.3) stood at 5.26 µM; against KV7.4, 2.8 ± 0.23 µM.

With “EVIKKDTPYKKRAFPYKSECLKACATSFTGGDESRIQEGKPGFFKCTCYFTTG (disulfide 20-46, 24-48) [SsTx_K13A]”, the IC50 on KV1.3 (setting [2]) is 526.1 ± 0.48 µM.

Turning to “EVIKKDTPYKARKFPYKSECLKACATSFTGGDESRIQEGKPGFFKCTCYFTTG (disulfide 20-46, 24-48) [SsTx_K11A]”, on KV1.3 (setting [2]), the IC50 is 507 ± 0.61 µM.

In the case of “EVIKKDTPYKKAKFPYKSECLKACATSFTGGDESRIQEGKPGFFKCTCYFTTG (disulfide 20-46, 24-48) [SsTx_R12A]”, the IC50 at KV1.3 (setting [2]) was found to be 22.23 ± 0.22 µM.
